Patent publication US11596639B2, “Substituted indole Mcl-1 inhibitors” (Vanderbilt University, priority 2016, dated 2023)

How the values were obtained:
Mcl-1 = Mcl-1 (Homo sapiens (Human), UniProt Q07820); assay: TR-FRET binding assay, FITC-Bak peptide and MBP-tagged Mcl-1; settings: read-out: Ki for Inhibition of Mcl-1 by TR-FRET assay
Procedure: Compounds are diluted in DMSO in a 16-point, semilog serial dilution scheme. […] The plate was mixed and incubated for 3 hours at room temperature. […] TR-FRET signal is plotted and IC50 and Ki values are calculated in the same manner as the fluorescence polarization anisotropy based competition assays.

[1] = test system: H929 human cancer cell lines; assay: Cellular viability / proliferation (Cell TiterGlo, 72 h); type: cell-based; settings: Homo sapiens, NCI-H929, 72 h, read-out: GI50 on cellular proliferation of H929 human cancer cell lines, H929 cells, 72 h, Cell TiterGlo, 10% FBS
Procedure, shortened: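 Cells were seeded at 1,000 cells/well in medium with 10% FBS and dosed 24 h later with a 2-fold serial dilution of compound (top concentration 50 μM, final DMSO <1%).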

Chain of Mcl-1 (Q07820 172-327): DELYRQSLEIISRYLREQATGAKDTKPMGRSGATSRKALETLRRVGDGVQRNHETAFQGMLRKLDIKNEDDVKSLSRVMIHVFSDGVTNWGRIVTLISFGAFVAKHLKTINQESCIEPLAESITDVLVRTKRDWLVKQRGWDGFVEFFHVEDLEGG

| Compound | Ki (Mcl-1) [nM] | GI50 [1] [nM] |
| --- | --- | --- |
| Cc1cc(OCCCc2c3n(c4c(-c5c(C)nn(C)c5C)c(Cl)ccc24)[C@H](C)CN(c2cn(CCN4CCN(C)C(=O)C4)c4ccc(-c5ncn(C)n5)cc24)C3=O)cc(C)c1Cl [Example 603, (R)-7-Chloro-10-(3-(4-chloro-3,5-dimethylphenoxy)propyl)-4-methyl-2-(5-(1-methyl-1H-1,2,4-triazol-3-yl)-1-(2-(4-methyl-3-oxopiperazin-1-yl)ethyl)-1H-indol-3-yl)-6-(1,3,5-trimethyl-1H-pyrazol-4-yl)-3,4-dihydropyrazino[1,2-a]indol-1(2H)-one] | 0.89 | < 200 |
| Cc1cc(N2C[C@@H](C)n3c(c(CCCOc4cc(C)c(Cl)c(C)c4)c4ccc(Cl)c(-c5c(C)nn(C)c5C)c43)C2=O)c2ncc(C(=O)O)cc2c1 [Example 658, (R)-8-(7-chloro-10-(3-(4-chloro-3,5-dimethylphenoxy)propyl)-4-methyl-1-oxo-6-(1,3,5-trimethyl-1H-pyrazol-4-yl)-3,4-dihydropyrazino[1,2-a]indol-2(1H)-yl)-6-methylquinoline-3-carboxylic acid] | < 0.2 | 250 |
| Cc1cc(OCCCc2c3n(c4c(-c5c(C)nc(CN6CCN(C)CC6)nc5C)c(Cl)ccc24)[C@H](C)CN(c2cn(C)c4ccc(-c5ncn(C)n5)cc24)C3=O)cc(C)c1Cl [Example 502, (R)-7-chloro-10-(3-(4-chloro-3,5-dimethylphenoxy)propyl)-6-(4,6-dimethyl-2-((4-methylpiperazin-1-yl)methyl)pyrimidin-5-yl)-4-methyl-2-(1-methyl-5-(1-methyl-1H-1,2,4-triazol-3-yl)-1H-indol-3-yl)-3,4-dihydropyrazino[1,2-a]indol-1(2H)-one] | 2.9 | < 200 |
| COCCOc1cc(N2C[C@@H](C)n3c(c(CCCOc4cc(C)c(Cl)c(C)c4)c4ccc(Cl)c(-c5c(C)nn(C)c5C)c43)C2=O)c2c(c1)c(C(=O)O)cn2CCOC [Example 656, (R)-7-(7-chloro-10-(3-(4-chloro-3,5-dimethylphenoxy)propyl)-4-methyl-1-oxo-6-(1,3,5-trimethyl-1H-pyrazol-4-yl)-3,4-dihydropyrazino[1,2-a]indol-2(1H)-yl)-5-(2-methoxyethoxy)-1-(2-methoxyethyl)-1H-indole-3-carboxylic acid] | < 0.2 | 250 |
| Cc1cc(N2C[C@@H](C)n3c(c(CCCOc4cc(C)c(Cl)c(C)c4)c4ccc(Cl)c(-c5c(C)nn(C)c5C)c43)C2=O)c2c(c1)cc(C(=O)O)n2Cc1cc(C#N)ccn1 [Example 556, (R)-7-(7-chloro-10-(3-(4-chloro-3,5-dimethylphenoxy)propyl)-4-methyl-1-oxo-6-(1,3,5-trimethyl-1H-pyrazol-4-yl)-3,4-dihydropyrazino[1,2-a]indol-2(1H)-yl)-1-((4-cyanopyridin-2-yl)methyl)-5-methyl-1H-indole-2-carboxylic acid] | < 0.2 | 280 |
| Cc1cc(OCCCc2c3n(c4c(-c5c(C)nn(C)c5C)c(Cl)ccc24)[C@H](C)CN(c2cn(C)c4ccc(-n5nccn5)cc24)C3=O)cc(C)c1Cl [Example 662, (R)-7-Chloro-10-(3-(4-chloro-3,5-dimethylphenoxy)propyl)-4-methyl-2-(1-methyl-5-(2H-1,2,3-triazol-2-yl)-1H-indol-3-yl)-6-(1,3,5-trimethyl-1H-pyrazol-4-yl)-3,4-dihydropyrazino[1,2-a]indol-1(2H)-one] | 0.93 | 1900 |
| COc1ccc(N2C[C@@H](C)n3c(c(CCCOc4cc(C)c(Cl)c(C)c4)c4ccc(Cl)c(-c5c(C)nc(CN(C)C)nc5C)c43)C2=O)c2c1cc(C(=O)O)n2C [Example 483, (R)-7-(7-Chloro-10-(3-(4-chloro-3,5-dimethylphenoxy)propyl)-6-(2-((dimethylamino)methyl)-4,6-dimethylpyrimidin-5-yl)-4-methyl-1-oxo-3,4-dihydropyrazino[1,2-a]indol-2(1H)-yl)-4-methoxy-1-methyl-1H-indole-2-carboxylic acid] | < 0.2 | 280 |
| Cc1cc(OCCCc2c3n(c4c(-c5c(C)nn(C)c5C)c(Cl)ccc24)[C@H](C)CN(c2cc(N(C)Cc4ccccn4)cc4c(C(=O)O)cn(C)c24)C3=O)cc(C)c1Cl [Example 564, (R)-7-(7-chloro-10-(3-(4-chloro-3,5-dimethylphenoxy)propyl)-4-methyl-1-oxo-6-(1,3,5-trimethyl-1H-pyrazol-4-yl)-3,4-dihydropyrazino[1,2-a]indol-2(1H)-yl)-1-methyl-5-(methyl(pyridin-2-ylmethyl)amino)-1H-indole-3-carboxylic acid] | 0.46 | 590 |
| Cc1cc(N2C[C@@H](C)n3c(c(CCCOc4cc(C)c(Cl)c(C)c4)c4ccc(Cl)c(-c5c(C)nn(C)c5C)c43)C2=O)c2c(c1)cc(C(=O)O)n2CCO [Example 657, (R)-7-(7-chloro-10-(3-(4-chloro-3,5-dimethylphenoxy)propyl)-4-methyl-1-oxo-6-(1,3,5-trimethyl-1H-pyrazol-4-yl)-3,4-dihydropyrazino[1,2-a]indol-2(1H)-yl)-1-(2-hydroxyethyl)-5-methyl-1H-indole-2-carboxylic acid] | < 0.2 | 610 |
| Cc1cc(OCCCc2c3n(c4c(-c5c(C)nn(C)c5C)c(Cl)ccc24)[C@H](C)CN(c2cc(CN4CCN(C)CC4)cc4cc(C(=O)O)n(C)c24)C3=O)cc(C)c1Cl [Example 544, (R)-7-(7-Chloro-10-(3-(4-chloro-3,5-dimethylphenoxy)propyl)-4-methyl-1-oxo-6-(1,3,5-trimethyl-1H-pyrazol-4-yl)-3,4-dihydropyrazino[1,2-a]indol-2(1H)-yl)-1-methyl-5-((4-methylpiperazin-1-yl)methyl)-1H-indole-2-carboxylic acid] | < 0.2 | 320 |
| Cc1cc(N2C[C@@H](C)n3c(c(CCCOc4cc(C)c(Cl)c(C)c4)c4ccc(Cl)c(-c5c(C)nn(C)c5C)c43)C2=O)c2c(c1)cc(C(=O)O)n2Cc1cc(C2=NCCO2)ccn1 [Example 600, (R)-7-(7-chloro-10-(3-(4-chloro-3,5-dimethylphenoxy)propyl)-4-methyl-1-oxo-6-(1,3,5-trimethyl-1H-pyrazol-4-yl)-3,4-dihydropyrazino[1,2-a]indol-2(1H)-yl)-1-((4-(4,5-dihydrooxazol-2-yl)pyridin-2-yl)methyl)-5-methyl-1H-indole-2-carboxylic acid] | < 0.2 | 2500 |
| Cc1cc(OCCCc2c3n(c4c(-c5c(C)nn(C)c5C)c(Cl)ccc24)[C@H](C)CN(c2cc(NC(=O)CCN(C)C)cc4c(C(=O)O)cn(C)c24)C3=O)cc(C)c1Cl [Example 541, (R)-7-(7-Chloro-10-(3-(4-chloro-3,5-dimethylphenoxy)propyl)-4-methyl-1-oxo-6-(1,3,5-trimethyl-1H-pyrazol-4-yl)-3,4-dihydropyrazino[1,2-a]indol-2(1H)-yl)-5-(3-(dimethylamino)propanamido)-1-methyl-1H-indole-3-carboxylic acid] | 0.53 | 1700 |
| COCCn1c(C(=O)O)cc2cc(C)cc(N3C[C@@H](C)n4c(c(CCCOc5cc(C)c(Cl)c(C)c5)c5ccc(Cl)c(-c6c(C)ncnc6C)c54)C3=O)c21 [Example 594, (R)-7-(7-chloro-10-(3-(4-chloro-3,5-dimethylphenoxy)propyl)-6-(4,6-dimethylpyrimidin-5-yl)-4-methyl-1-oxo-3,4-dihydropyrazino[1,2-a]indol-2(1H)-yl)-1-(2-methoxyethyl)-5-methyl-1H-indole-2-carboxylic acid] | < 0.2 | 230 |
| COc1cc(N2C[C@@H](C)n3c(c(CCCOc4cc(C)c(Cl)c(C)c4)c4ccc(Cl)c(-c5c(C)nn(C)c5C)c43)C2=O)c2c(c1)c(C(=O)O)cn2Cc1ccccn1 [Example 605, (R)-7-(7-chloro-10-(3-(4-chloro-3,5-dimethylphenoxy)propyl)-4-methyl-1-oxo-6-(1,3,5-trimethyl-1H-pyrazol-4-yl)-3,4-dihydropyrazino[1,2-a]indol-2(1H)-yl)-5-methoxy-1-(pyridin-2-ylmethyl)-1H-indole-3-carboxylic acid] | 0.45 | 490 |
| Cc1cc(N2C[C@@H](C)n3c(c(CCCOc4cc(C)c(Cl)c(C)c4)c4ccc(Cl)c(-c5c(C)nn(C)c5C)c43)C2=O)c2c(c1)cc(C(=O)O)n2Cc1cc(N2CCN(C)CC2)ccn1 [Example 515, (R)-7-(7-Chloro-10-(3-(4-chloro-3,5-dimethylphenoxy)propyl)-4-methyl-1-oxo-6-(1,3,5-trimethyl-1H-pyrazol-4-yl)-3,4-dihydropyrazino[1,2-a]indol-2(1H)-yl)-5-methyl-1-((4-(4-methylpiperazin-1-yl)pyridin-2-yl)methyl)-1H-indole-2-carboxylic acid] | < 0.2 | 610 |
| Cc1cc(OCCCc2c3n(c4c(-c5c(C)nn(C)c5C)c(Cl)ccc24)[C@H](C)CN(c2cccc4c(C(=O)O)ccnc24)C3=O)cc(C)c1Cl [Example 661, (R)-8-(7-chloro-10-(3-(4-chloro-3,5-dimethylphenoxy)propyl)-4-methyl-1-oxo-6-(1,3,5-trimethyl-1H-pyrazol-4-yl)-3,4-dihydropyrazino[1,2-a]indol-2(1H)-yl)quinoline-4-carboxylic acid] | 0.23 | 2400 |
| Cc1cnc(-n2cnc(-c3ccc4c(c3)c(N3C[C@@H](C)n5c(c(CCCOc6cc(C)c(Cl)c(C)c6)c6ccc(Cl)c(-c7c(C)nn(C)c7C)c65)C3=O)cn4C)n2)nc1 [Example 700, (R)-7-Chloro-10-(3-(4-chloro-3,5-dimethylphenoxy)propyl)-4-methyl-2-(1-methyl-5-(1-(5-methylpyrimidin-2-yl)-1H-1,2,4-triazol-3-yl)-1H-indol-3-yl)-6-(1,3,5-trimethyl-1H-pyrazol-4-yl)-3,4-dihydropyrazino[1,2-a]indol-1(2H)-one] | 0.73 | 380 |
